# Laboratory results: US20100048594A1, “USE OF CYTOHESIN INHIBITORS FOR CHEMICALLY INDUCING LONGEVITY” (RHEINISCHE FRIEDRICH-WILHELMS UNIVERSITAT, priority 2006, published 2010)
# Assays:
# [1] = tested on: genes that are controlled via the PI3K-dependent pathway of the insulin receptor signaling pathway; test: Expression of insulin-regulated gluconeogenic and glycolytic genes in mouse liver after feeding (quantitative PCR); type: in vivo, C57BL/6 mice; conditions: food with 0.9 μmol/g compound for 3 days, 40 μg insulin i.p.
# Source text: C57BL/6 mice (Charles River Laboratories) that had been kept in a pathogen-free animal facility, maintaining a 12-hour light/dark cycle, were used. The animals received standard mouse food (19% protein, 3.3% fat, 41.3% carbohydrates; ssniff Spezialdiäten GmbH) ad libitum. Male animals between the ages of 8 and 12 weeks were used.
# A group of 6 C57BL/6 mice received standard mouse food mixed with 0.9 μmol/g of the compound according to formula (9) for a period of 3 days, while a control group of 6 animals received standard mouse food. The animals were then injected intraperitoneally with 100 μl normal saline solution (control group) or saline solution with 40 μg recombinant human insulin (Sigma). […]
# Total RNA from 15 mg mouse liver in each case was isolated using the Absolutely RNA Kit (Stratagene) and the cDNA was produced via the reverse transcription of 2 μg RNA using the High Capacity cDNA Archive Kit (Applied Biosystems), according to the manufacturer's instructions. Quantitative PCR was performed in 10 μl batches in an iQ5-Cycler (BioRad) by means of the TaqMan Gene Expression Assay (Applied Biosystems) using primers (Applied Biosystems), against lgfbp1, Fbp2, Pck1, Pck2, G6 pc, Hk2, Pklr, Gck, Gckr, according to the manufacturer's instructions. […]
# [2] = tested on: Drosophila melanogaster flies; test: Lifespan of adult Drosophila melanogaster flies fed with compound (Kaplan-Meier analysis); type: in vivo; conditions: for Average Lifespan: ±margin of error
# Protocol: The experiments were conducted on isogenic flies (Drosophila melanogaster) of the genotype white^1118, also called white^− or w^−, and mutants (w^1118; step^k08110/step^SH0323) (strain # 10770 from the public Bloomington Stock Center, genotype: step^k08110/CyO, URL http://flybase.bio.indiana.edu/reports/FBstOO10770.html; strain # FBst0103734 from the public Szeged Stock Center, genotype: step^SH0323/CyO, URL http://flybase.bio.indiana.edu/reports/FBst0103734.html), in which the Drosophila cytohesin steppke is mutated and therefore defective.
# By crossing the two steppke alleles k08110 and SH0323 eight times with whites flies, an isogenic genetic background is produced, which permits a comparison of the lifespans between the genotypes of the type white^1118 and the mutants (w^1118; step^k08110/step^SH0323). The average lifespan of the wild type was approximately 25 days, while that of the mutants (w^1118; step^k08110/step^SH0323) was approximately 30 days.
# To produce the special food, 32.5 g autolysed yeast (Fluka (Catalog No. 73145)) and 10 g agar (Difco (Catalog No. 281230)) were mixed with 300 ml water (demineralized, Roth (Catalog No. 3175)) and autoclaved at 120° C. for 20 minutes. The solution was cooled to 60° C., and 32.5 g α-D(+)-glucose monohydrate (Roth (Catalog No. 6887)) were added under stirring. 15 ml 10% (w/v) p-hydroxybenzoic acid methylester (Sigma (Catalog No. H3647)) solution dissolved in 70% (v/v) ethanol (Roth (Catalog No. 9065)) and 1.35 ml dimethylsulfoxide (DMSO, Roth (Catalog No. A994)) were then added. Water was then added to this basic solution to a volume of 450 ml, which was then held at a temperature of 60° C. For the control food, 50 ml of a 0.7% (v/v) DMSO solution in water were produced. For the food containing the compounds according to formulas (9) or (25), 0.2 ml of a 25 mM solution of the compounds according to formula (9) or (25) in 100% DMSO were added to 49.8 ml of a 0.3012% DMSO solution in water.
# These 50 ml of the control solutions and the solutions containing the compounds according to formula (9) or (25) were each mixed with 450 ml of the basic solution, and were placed in 4 ml amounts in polystyrene containers (height 9.5 cm, diameter 2.4 cm, sealed with cotton wadding) to maintain the flies. After 24 hours, the cooled containers were sealed with cotton wadding and stored at 4° C.
# The final concentration of the food components in the control food was 6.5% (w/v) autolysed yeast, 6.5% (w/v) α-D(+)-glucose monohydrate, 2% (w/v) agar, 0.3% (w/v) p-hydroxybenzoic acid methylester, 2.1% ethanol (v/v), 0.34% (v/v) DMSO.
# (§1) The final concentration of the food components in the food containing the compound according to formula (9) was 6.5% (w/v) autolysed yeast, 6.5% (w/v) α-D(+)-glucose monohydrate, 2% (w/v) agar, 0.3% (w/v) p-hydroxybenzoic acid methylester, 2.1% ethanol (v/v), 0.34% (v/v) DMSO, 10 μM compound according to formula (9).
# as §1, with “(25)” for “(9)”, “(25).” for “(9).”
# The larvae were maintained on standard fly food containing 1.1% (w/v) brewer's yeast (“Gewürzmühle Brecht” company), 5.43% (w/v) cornmeal, 0.53% (w/v) filamentous agar (“Gewürzmühle Brecht” company), 6.6% (v/v) sugar beet syrup (Grafschafter), 1.3% (v/v) ethanol (Roth company), 0.13% (w/v) p-hydroxybenzoic acid methylester (Sigma).
# 24 hours after emergence of the imagines, the adult flies, females and males were separated under a brief CO2 anesthetization lasting less than 2 minutes. During the 24 hours after emergence, the animals were fed using standard fly food. […]
structure (smiles),measurement,setting,value
COc1nc(-c2ccc3c(c2)OCO3)n(-c2ccc(NC(=O)CSc3ccccc3)cc2)n1 [Compound (9)],expression of the glycolytic gene induced by insulin,[1],decreased to a statistically significant degree
same,"expression of the studied gluconeogenic gene, suppressed by insulin",[1],increased
same,increase in average lifespan as compared with the untreated control animals,"[2]; control animals (w^1118), 10 μM compound in food, P<0.05",11.5%
same,Average Lifespan,"[2]; genotype w^1118, female flies, 10 μM compound in food",28.1 (±1.0) Days
same,Average Lifespan,"[2]; genotype w^1118, step^k08110/step^SH0323 mutants, female flies, 10 μM compound in food",34.6 (±0.8) Days
same,longer lifespan of treated mutants than untreated control animals,[2]; steppke mutants fed 10 μM compound versus untreated w^1118,37.3%
same,increase in the average lifespan of mutants by feeding,"[2]; steppke mutants, 10 μM compound in food, versus untreated mutants, P<0.001",15.3%
